Reference: the supplement of paper PMC10307832

Assays:
Test in all cases: relative viability (nuclei count vs DMSO), 5 days (fraction); higher = more cells survive
NCI-H1666 = tested on: NCI-H1666
Procedure, shortened: (§1)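 Relative viability is defined as nuclei in treated wells over nuclei in vehicle wells. Duplicate plates were run and medians reported. Lung cancer cell lines in 1536-well plates were dosed by pin tool one day after seeding, with one drug or with a fixed anchor-drug dose plus five library-drug doses (not always all listed) in √10 steps, and nuclei were counted after 5 days.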

NCI-H2126 = tested on: NCI-H2126
Procedure, shortened: as §1

HCC-44 = tested on: HCC-44
Procedure, shortened: as §1

NCI-H1792 = tested on: NCI-H1792
Procedure, shortened: as §1

NCI-H3122 = tested on: NCI-H3122
Procedure, shortened: as §1

NCI-H2347 = tested on: NCI-H2347
Procedure, shortened: as §1

HCC-827 = tested on: HCC-827
Procedure, shortened: as §1

ChaGo-K-1 = tested on: ChaGo-K-1
Procedure, shortened: as §1

NCI-H1793 = tested on: NCI-H1793
Procedure, shortened: as §1

NCI-H1755 = tested on: NCI-H1755
Procedure, shortened: as §1

LU99A = tested on: LU99A
Procedure, shortened: as §1

RERF-LC-KJ = tested on: RERF-LC-KJ
Procedure, shortened: as §1

LXF-289 = tested on: LXF-289
Procedure, shortened: as §1

NCI-H1395 = tested on: NCI-H1395
Procedure, shortened: as §1

ABC-1 = tested on: ABC-1
Procedure, shortened: as §1

CAL-12T = tested on: CAL-12T
Procedure, shortened: as §1

NCI-H358 = tested on: NCI-H358
Procedure, shortened: as §1

NCI-H1944 = tested on: NCI-H1944
Procedure, shortened: as §1

LCLC-103H = tested on: LCLC-103H
Procedure, shortened: as §1

NCI-H322M = tested on: NCI-H322M
Procedure, shortened: as §1

SK-LU-1 = tested on: SK-LU-1
Procedure, shortened: as §1

NCI-H520 = tested on: NCI-H520
Procedure, shortened: as §1

## CN1CCN(CCOc2cc(OC3CCOCC3)c3c(Nc4c(Cl)ccc5c4OCO5)ncnc3c2)CC1 [Saracatinib] + NC(=O)Nc1cc(-c2cccc(F)c2)sc1C(=O)N[C@H]1CCCNC1 [AZD7762] (partner 0.2 µM)
NCI-H1666; first compound 0.02 µM
  relative viability: 0.956
NCI-H1666; first compound 0.2 µM
  relative viability: 0.821
NCI-H1666; first compound 0.6325 µM
  relative viability: 1.07
NCI-H1666; first compound 2 µM
  relative viability: 0.847
NCI-H2126; first compound 0.02 µM
  relative viability: 1
NCI-H2126; first compound 0.2 µM
  relative viability: 0.883
NCI-H2126; first compound 0.6325 µM
  relative viability: 1.01
NCI-H2126; first compound 2 µM
  relative viability: 0.993
HCC-44; first compound 0.02 µM
  relative viability: 1.07
HCC-44; first compound 0.2 µM
  relative viability: 0.941
HCC-44; first compound 0.6325 µM
  relative viability: 1.03
HCC-44; first compound 2 µM
  relative viability: 1.01
NCI-H1792; first compound 0.02 µM
  relative viability: 0.618
NCI-H1792; first compound 0.2 µM
  relative viability: 0.542
NCI-H1792; first compound 0.6325 µM
  relative viability: 0.831
NCI-H1792; first compound 2 µM
  relative viability: 0.648
NCI-H3122; first compound 0.02 µM
  relative viability: 0.97
NCI-H3122; first compound 0.2 µM
  relative viability: 0.922
NCI-H3122; first compound 0.6325 µM
  relative viability: 0.889
NCI-H3122; first compound 2 µM
  relative viability: 0.698
NCI-H2347; first compound 0.02 µM
  relative viability: 0.828
NCI-H2347; first compound 0.2 µM
  relative viability: 0.663
NCI-H2347; first compound 0.6325 µM
  relative viability: 0.623
NCI-H2347; first compound 2 µM
  relative viability: 0.657
HCC-827; first compound 0.02 µM
  relative viability: 0.223
HCC-827; first compound 0.2 µM
  relative viability: 0.119
HCC-827; first compound 0.6325 µM
  relative viability: 0.145
HCC-827; first compound 2 µM
  relative viability: 0.11
ChaGo-K-1; first compound 0.02 µM
  relative viability: 0.895
ChaGo-K-1; first compound 0.2 µM
  relative viability: 0.614
ChaGo-K-1; first compound 0.6325 µM
  relative viability: 0.967
ChaGo-K-1; first compound 2 µM
  relative viability: 0.924
NCI-H1793; first compound 0.02 µM
  relative viability: 0.304
NCI-H1793; first compound 0.2 µM
  relative viability: 0.233
NCI-H1793; first compound 0.6325 µM
  relative viability: 0.312
NCI-H1793; first compound 2 µM
  relative viability: 0.26
NCI-H1755; first compound 0.02 µM
  relative viability: 0.438
NCI-H1755; first compound 0.2 µM
  relative viability: 0.41
NCI-H1755; first compound 0.6325 µM
  relative viability: 0.465
NCI-H1755; first compound 2 µM
  relative viability: 0.372
LU99A; first compound 0.02 µM
  relative viability: 0.374
LU99A; first compound 0.2 µM
  relative viability: 0.279
LU99A; first compound 0.6325 µM
  relative viability: 0.31
LU99A; first compound 2 µM
  relative viability: 0.325
RERF-LC-KJ; first compound 0.02 µM
  relative viability: 1.13
RERF-LC-KJ; first compound 0.2 µM
  relative viability: 0.971
RERF-LC-KJ; first compound 2 µM
  relative viability: 1
LXF-289; first compound 0.02 µM
  relative viability: 1.12
LXF-289; first compound 0.2 µM
  relative viability: 1.09
LXF-289; first compound 0.6325 µM
  relative viability: 1.12
LXF-289; first compound 2 µM
  relative viability: 1.1
NCI-H1395; first compound 0.02 µM
  relative viability: 0.404
NCI-H1395; first compound 0.2 µM
  relative viability: 0.397
NCI-H1395; first compound 0.6325 µM
  relative viability: 0.388
NCI-H1395; first compound 2 µM
  relative viability: 0.382
ABC-1; first compound 0.02 µM
  relative viability: 0.934
ABC-1; first compound 0.2 µM
  relative viability: 0.825
ABC-1; first compound 0.6325 µM
  relative viability: 0.908
ABC-1; first compound 2 µM
  relative viability: 0.695
CAL-12T; first compound 0.02 µM
  relative viability: 0.612
CAL-12T; first compound 0.2 µM
  relative viability: 0.6
CAL-12T; first compound 0.6325 µM
  relative viability: 0.662
CAL-12T; first compound 2 µM
  relative viability: 0.699
NCI-H358; first compound 0.02 µM
  relative viability: 0.668
NCI-H358; first compound 0.2 µM
  relative viability: 0.418
NCI-H358; first compound 0.6325 µM
  relative viability: 0.364
NCI-H358; first compound 2 µM
  relative viability: 0.318
NCI-H1944; first compound 0.02 µM
  relative viability: 0.476
NCI-H1944; first compound 0.2 µM
  relative viability: 0.413
NCI-H1944; first compound 0.6325 µM
  relative viability: 0.528
NCI-H1944; first compound 2 µM
  relative viability: 0.404
LCLC-103H; first compound 0.02 µM
  relative viability: 0.855
LCLC-103H; first compound 0.2 µM
  relative viability: 0.711
LCLC-103H; first compound 0.6325 µM
  relative viability: 0.821
LCLC-103H; first compound 2 µM
  relative viability: 0.772
NCI-H322M; first compound 0.02 µM
  relative viability: 0.593
NCI-H322M; first compound 0.2 µM
  relative viability: 0.498
NCI-H322M; first compound 0.6325 µM
  relative viability: 0.552
NCI-H322M; first compound 2 µM
  relative viability: 0.353

## CN1CCN(CCOc2cc(OC3CCOCC3)c3c(Nc4c(Cl)ccc5c4OCO5)ncnc3c2)CC1 [Saracatinib] + Cc1nc(Nc2ncc(C(=O)Nc3c(C)cccc3Cl)s2)cc(N2CCN(CCO)CC2)n1 [Dasatinib] (partner 0.075 µM)
NCI-H1666; first compound 0.02 µM
  relative viability: 0.772
NCI-H1666; first compound 0.2 µM
  relative viability: 0.87
NCI-H1666; first compound 0.6325 µM
  relative viability: 0.967
NCI-H1666; first compound 2 µM
  relative viability: 0.875
NCI-H2126; first compound 0.02 µM
  relative viability: 0.569
NCI-H2126; first compound 0.2 µM
  relative viability: 0.511
NCI-H2126; first compound 0.6325 µM
  relative viability: 0.532
NCI-H2126; first compound 2 µM
  relative viability: 0.398
NCI-H1792; first compound 0.02 µM
  relative viability: 0.824
NCI-H1792; first compound 0.2 µM
  relative viability: 0.566
NCI-H1792; first compound 0.6325 µM
  relative viability: 0.894
NCI-H1792; first compound 2 µM
  relative viability: 0.711
NCI-H3122; first compound 0.02 µM
  relative viability: 0.879
NCI-H3122; first compound 0.2 µM
  relative viability: 0.666
NCI-H3122; first compound 0.6325 µM
  relative viability: 0.562
NCI-H3122; first compound 2 µM
  relative viability: 0.655
SK-LU-1; first compound 0.02 µM
  relative viability: 0.148
SK-LU-1; first compound 0.2 µM
  relative viability: 0.14
SK-LU-1; first compound 0.6325 µM
  relative viability: 0.138
SK-LU-1; first compound 2 µM
  relative viability: 0.146
NCI-H2347; first compound 0.02 µM
  relative viability: 0.305
NCI-H2347; first compound 0.2 µM
  relative viability: 0.293
NCI-H2347; first compound 0.6325 µM
  relative viability: 0.32
NCI-H2347; first compound 2 µM
  relative viability: 0.346
HCC-827; first compound 0.02 µM
  relative viability: 0.3
HCC-827; first compound 0.2 µM
  relative viability: 0.136
HCC-827; first compound 0.6325 µM
  relative viability: 0.22
HCC-827; first compound 2 µM
  relative viability: 0.131
ChaGo-K-1; first compound 0.02 µM
  relative viability: 0.732
ChaGo-K-1; first compound 0.2 µM
  relative viability: 0.431
ChaGo-K-1; first compound 0.6325 µM
  relative viability: 0.657
ChaGo-K-1; first compound 2 µM
  relative viability: 0.459
NCI-H1793; first compound 0.02 µM
  relative viability: 0.439
NCI-H1793; first compound 0.6325 µM
  relative viability: 0.426
NCI-H1793; first compound 2 µM
  relative viability: 0.341
NCI-H1755; first compound 0.02 µM
  relative viability: 0.422
NCI-H1755; first compound 0.2 µM
  relative viability: 0.318
NCI-H1755; first compound 0.6325 µM
  relative viability: 0.439
NCI-H1755; first compound 2 µM
  relative viability: 0.404
LU99A; first compound 0.02 µM
  relative viability: 0.567
LU99A; first compound 0.2 µM
  relative viability: 0.578
LU99A; first compound 0.6325 µM
  relative viability: 0.652
LU99A; first compound 2 µM
  relative viability: 0.558
RERF-LC-KJ; first compound 0.02 µM
  relative viability: 0.883
RERF-LC-KJ; first compound 0.2 µM
  relative viability: 0.797
RERF-LC-KJ; first compound 0.6325 µM
  relative viability: 0.695
RERF-LC-KJ; first compound 2 µM
  relative viability: 0.676
LXF-289; first compound 0.02 µM
  relative viability: 0.224
LXF-289; first compound 0.2 µM
  relative viability: 0.218
LXF-289; first compound 0.6325 µM
  relative viability: 0.185
LXF-289; first compound 2 µM
  relative viability: 0.212
NCI-H520; first compound 0.02 µM
  relative viability: 0.21
NCI-H520; first compound 0.6325 µM
  relative viability: 0.194
NCI-H520; first compound 2 µM
  relative viability: 0.244
NCI-H1395; first compound 0.02 µM
  relative viability: 0.394
NCI-H1395; first compound 0.2 µM
  relative viability: 0.418
NCI-H1395; first compound 0.6325 µM
  relative viability: 0.411
NCI-H1395; first compound 2 µM
  relative viability: 0.402
ABC-1; first compound 0.02 µM
  relative viability: 0.673
ABC-1; first compound 0.2 µM
  relative viability: 0.591
ABC-1; first compound 0.6325 µM
  relative viability: 0.616
ABC-1; first compound 2 µM
  relative viability: 0.514
CAL-12T; first compound 0.02 µM
  relative viability: 0.593
CAL-12T; first compound 0.2 µM
  relative viability: 0.451
CAL-12T; first compound 0.6325 µM
  relative viability: 0.47
CAL-12T; first compound 2 µM
  relative viability: 0.294
NCI-H358; first compound 0.02 µM
  relative viability: 0.168
NCI-H358; first compound 0.2 µM
  relative viability: 0.16
NCI-H358; first compound 0.6325 µM
  relative viability: 0.18
NCI-H358; first compound 2 µM
  relative viability: 0.103
NCI-H1944; first compound 0.02 µM
  relative viability: 0.219
NCI-H1944; first compound 0.6325 µM
  relative viability: 0.182
NCI-H1944; first compound 2 µM
  relative viability: 0.181
LCLC-103H; first compound 0.02 µM
  relative viability: 0.475
LCLC-103H; first compound 0.2 µM
  relative viability: 0.496
LCLC-103H; first compound 0.6325 µM
  relative viability: 0.466
LCLC-103H; first compound 2 µM
  relative viability: 0.515
NCI-H322M; first compound 0.02 µM
  relative viability: 0.245
NCI-H322M; first compound 0.2 µM
  relative viability: 0.196
NCI-H322M; first compound 0.6325 µM
  relative viability: 0.211
NCI-H322M; first compound 2 µM
  relative viability: 0.215
